The text below walks through data of patent publication US20210252045A1, “Method for inactivating and removing disease-related levels of sulfane sulfur from affected biological tissues with special relevance to Covid-19 virus infection” (priority 2019, published 2021).

The subject of data set [1] is Rhinovirus of the common cold. The data set can be described thus: Ingesting sulfite at first symptoms of the common cold (inventor's self-administration). It is filed as in vivo. The note with it: oral, 250 mg every 4 hours for 24 hours, started at first symptoms (within 48 hours); the inventor themself. The method, then:
It appears to be important that this be started within 48 hours of first appearance of the symptoms although data is lacking on using the agent later in the course of the infection. The stated quantities are effective but might be refined. The total quantity in the above example is equivalent to drinking 4 bottles of some wines or ingesting 500 gm of certain dried fruits. Application of this example to Covid 19 would be a first TREATMENT for this disease.

For data set [2] the following is noted: sulfur dioxide gas in water at pH above 3; cited from earlier work.

As to `O=S([O-])S(=O)(=O)[O-].[K+].[K+]` [K. metabisulfite], the “course of common cold symptoms after ingestion” value in data set [1] is “symptoms clear without progressing to a full cold”.

Regarding `O=S(O)O` [sulfurous acid], in data set [2], the pKa2 is around 7.
